The target of the first test is Prostaglandin E synthase (Homo sapiens) (UniProt O14684). The experiment in a line: Inhibition of human mPGES1.
Chain of Prostaglandin E synthase (Homo sapiens) (O14684 whole entry, looked up): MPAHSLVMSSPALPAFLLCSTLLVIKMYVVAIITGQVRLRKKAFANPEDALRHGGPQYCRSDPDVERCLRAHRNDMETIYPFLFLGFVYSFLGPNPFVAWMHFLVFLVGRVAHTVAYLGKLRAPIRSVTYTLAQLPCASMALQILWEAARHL
`CCCCCCCCCCCC1=C(O)C(=O)C=C(O)C1=O` [CHEBI:4778]: the IC50 (in general, the point on the concentration scale where inhibition reaches its midpoint) stood at 0.21 µM.

For a further test the target is unchanged. The experiment in a line: Inhibition of mPGES1 in IL-1beta stimulated human A549 cell microsomal membranes assessed as reduction in PGE2 synthase activity after 15 mins using PGH2 substrate by RP-HPLC method.
Take `CCCCCCCCCCCCCCC1=C(OC)C(OC)=CC(=O)C1=O`: the IC50 is greater than 10 µM.
The same measure, in the same setting: as for `CCCCCCCCCCC1=C(OC)C(=O)C=C(OC)C1=O`, the figure is greater than 10 µM.
With `CCCCCCCCCCCCCCCC1=C(O)C(=O)C=C(OC)C1=O`, the half-inhibitory concentration (IC50) worked out at 9.3 µM.
Still for that read-out and setting: to `CCCCCCCCCCCCCCCC1=C(O)C(=O)C=C(O)C1=O` belongs 2.1 µM; to `CCCCCCCCCCCCCC1=C(OC)C(OC)=CC(=O)C1=O`, greater than 10 µM.
The same measure, in the same setting: as for `CCCCCCCCCCCCC1=C(OC)C(=O)C=C(OC)C1=O`, the figure is 4.7 µM; as for `COC1=CC(=O)C(O)=C(C/C=C(\C)CCC=C(C)C)C1=O`, greater than 10 µM; as for `CCCCCCCCC1=C(OC)C(=O)C=C(OC)C1=O`, greater than 10 µM.
Regarding `CCCCCCC1=C(O)C(=O)C=C(OC)C1=O`, the 50% inhibitory concentration (IC50) was greater than 10 µM.
The same measure, in the same setting: to `CCCCCCCCCCCCCC1=C(OC)C(=O)C=C(OC)C1=O` belongs 1.8 µM.
Still for that read-out and setting: as for `CCCCCCCCCCCCCCCCC1=C(O)C(=O)C=C(OC)C1=O`, the figure is greater than 10 µM.
On the same count and under the same terms, to `CCCCCCCCCCCCCCC1=C(O)C(=O)C=C(OC)C1=O` belongs greater than 10 µM.
In the case of `CCCCCCC1=C(OC)C(OC)=CC(=O)C1=O`, the concentration for half-maximal inhibition (IC50) is greater than 10 µM.
Same read-out and setting: to `COC1=CC(=O)C(=O)C(C/C=C(\C)CC/C=C(\C)CCC=C(C)C)=C1OC` belongs greater than 10 µM; to `CCCCC1=C(O)C(=O)C=C(O)C1=O`, greater than 10 µM; to `CCCCCCCCC1=C(O)C(=O)C=C(OC)C1=O`, greater than 10 µM.
Same read-out and setting: as for `CCCCCCCCCCC1=C(OC)C(OC)=CC(=O)C1=O`, the figure is greater than 10 µM; as for `CCCCCCCCCCCC1=C(OC)C(=O)C=C(OC)C1=O`, greater than 10 µM; as for `CCCCCCC1=C(OC)C(=O)C=C(OC)C1=O`, greater than 10 µM.
Take `COC1=CC(=O)C(OC)=C(C/C=C(\C)CC/C=C(\C)CCC=C(C)C)C1=O`: the 50% inhibitory concentration (IC50) is greater than 10 µM.
The same measure, in the same setting: to `CC(C)=CCC/C(C)=C/CC/C(C)=C/CC1=C(O)C(=O)C=C(O)C1=O` belongs greater than 10 µM.
Same read-out and setting: to `CCCCCCCCCCCCCCCCC1=C(OC)C(=O)C=C(OC)C1=O` belongs greater than 10 µM; to `CCCCCCCCCCCCCC1=C(O)C(=O)C=C(OC)C1=O` [Sorgoleone-364], 6.1 µM.
Still for that read-out and setting: as for `CCCCCCCCCCCC1=C(O)C(=O)C=C(O)C1=O` [CHEBI:4778], the figure is 0.21 µM.
Turning to `CC(C)=CCC/C(C)=C/CC1=C(O)C(=O)C=C(O)C1=O`, the IC50 was greater than 10 µM.
In the case of `COC1=CC(=O)C(O)=C(C/C=C(\C)CC/C=C(\C)CCC=C(C)C)C1=O`, the half-maximal inhibitory concentration (IC50) is greater than 10 µM.
Still for that read-out and setting: as for `CCCCC1=C(O)C(=O)C=C(OC)C1=O`, the figure is greater than 10 µM; as for `CCCCC1=C(OC)C(OC)=CC(=O)C1=O`, greater than 10 µM; as for `CCCCCCCCCCCCC1=C(O)C(=O)C=C(O)C1=O`, 3.1 µM.
Still for that read-out and setting: to `CCCCC1=C(OC)C(=O)C=C(OC)C1=O` belongs greater than 10 µM.
The same measure, in the same setting: as for `CCCCCCCCCCCCCCCCC1=C(O)C(=O)C=C(O)C1=O`, the figure is greater than 10 µM; as for `CCCCCCCCCCCCCC1=C(O)C(=O)C=C(O)C1=O` [CHEBI:8779], 0.9 µM.
On to `CCCCCCCCCCCCCCCC1=C(OC)C(=O)C=C(OC)C1=O`, for which the IC50 was 7.2 µM.
Same read-out and setting: to `CCCCCCCCCCCCC1=C(OC)C(OC)=CC(=O)C1=O` belongs greater than 10 µM.
On the same count and under the same terms, as for `CCCCCCCCCCCCCCC1=C(OC)C(=O)C=C(OC)C1=O`, the figure is 4.4 µM.
For `CCCCCCCCCCCC1=C(O)C(=O)C=C(OC)C1=O` [CHEBI:65842], the IC50 is 9.1 µM.
Still for that read-out and setting: to `COC1=CC(=O)C(OC)=C(C/C=C(\C)CCC=C(C)C)C1=O` belongs greater than 10 µM.
On the same count and under the same terms, to `COC1=CC(=O)C(=O)C(C/C=C(\C)CCC=C(C)C)=C1OC` belongs greater than 10 µM; to `CCCCCCCCCCCCCCC1=C(O)C(=O)C=C(O)C1=O`, 1.6 µM.
On the same count and under the same terms, as for `CCCCCCCCCCCCCCCC1=C(OC)C(OC)=CC(=O)C1=O`, the figure is greater than 10 µM; as for `CCCCCCCCCCCC1=C(OC)C(OC)=CC(=O)C1=O`, greater than 10 µM.
With `CCCCCCC1=C(O)C(=O)C=C(O)C1=O`, the 50% inhibitory concentration (IC50) was greater than 10 µM.
In the case of `CCCCCCCCC1=C(OC)C(OC)=CC(=O)C1=O`, the IC50 is greater than 10 µM.
Still for that read-out and setting: to `CCCCCCCCCCC1=C(O)C(=O)C=C(O)C1=O` belongs 1 µM; to `CCCCCCCCC1=C(O)C(=O)C=C(O)C1=O`, 0.8 µM; to `CCCCCCCCCCCCC1=C(O)C(=O)C=C(OC)C1=O`, 5.8 µM.
Still for that read-out and setting: as for `CCCCCCCCCCC1=C(O)C(=O)C=C(OC)C1=O`, the figure is greater than 10 µM.

These data come from BindingDB's records for doi:10.1016/j.ejmech.2015.02.042 (University of Naples, 2015).
